The record followed here is US20240182491A1, “SUBSTITUTED FUSED BICYCLIC MACROCYCLIC COMPOUNDS AND RELATED METHODS OF TREATMENT” (Alkermes, Inc., priority 2021, published 2024).

The term EC50 denotes the concentration needed to bring the measured effect to its halfway point. Low values mean an effect from little substance, high ones a need for much substance.

A value given as a limit tells only on which side of the number the result lay.

This assay has as its target T1, human orexin-2 receptor (OX2R) (Homo sapiens, UniProt O43614).
T1 construct: expressed in transfected cells
T1 sequence (O43614 1-444): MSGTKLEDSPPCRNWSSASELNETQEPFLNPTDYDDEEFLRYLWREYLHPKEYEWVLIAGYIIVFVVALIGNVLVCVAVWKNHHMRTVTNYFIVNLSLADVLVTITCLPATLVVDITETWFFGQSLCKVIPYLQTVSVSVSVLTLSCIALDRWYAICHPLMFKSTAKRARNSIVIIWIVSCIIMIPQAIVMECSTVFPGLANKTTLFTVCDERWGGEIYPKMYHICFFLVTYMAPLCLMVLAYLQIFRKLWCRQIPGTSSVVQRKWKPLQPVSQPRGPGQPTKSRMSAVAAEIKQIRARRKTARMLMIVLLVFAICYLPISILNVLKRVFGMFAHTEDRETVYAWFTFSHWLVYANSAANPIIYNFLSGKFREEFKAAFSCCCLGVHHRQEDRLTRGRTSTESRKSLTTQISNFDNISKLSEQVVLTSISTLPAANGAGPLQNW
Description: Human OX2R IP1 assay. Format: cell-based. The settings on record: T-Rex CHO cells stably overexpressing human OX2R; inositol monophosphate (IP1) accumulation, 1 hr at 37 degrees C; mean EC50. The protocol:
T-Rex CHO cells stably overexpressing the human orexin-2 receptor (OX2R) were induced overnight with 1 μg/mL of doxycycline in a T225 flask. 24 hours post induction, cells were lifted with accutase and plated into a 384-well proxy plate at 30,000 cells/well. Cells were then treated with different test compounds in 1× stimulation buffer containing 10 mM Hepes, 1 mM CaCl2), 0.5 mM MgCl2, 4.2 mM KCl, 146 mM NaCl, 5.5 mM glucose, and 50 mM LiCl, pH 7.4, for 1 hr at 37 degrees C. Following incubation, the reaction was terminated by the addition of detection mix, which is composed of IP1-d2 and anti-IP1-cryptate diluted in lysis buffer as well as 1× stimulation buffer. The plates were allowed to incubate for 1 hour at room temperature and were then read in the EnVision® multimode plate reader, measuring inositol phosphate levels.
Cisbio IP1 is a cell-based functional assay quantifying the accumulation of inositol monophosphate (IP), a metabolite released as a result of orexin 2 receptor activation through the phospholipase C-Gq signaling pathway. This is a competitive immunoassay in which the IP1 produced by the cells upon receptor activation competes with the IP1 analog coupled to the d2 fluorophore (acceptor) for binding to an anti-IP1 monoclonal antibody labeled with Eu cryptate (donor). The measured HTRF-FRET based signal is inversely proportional to the IP1 concentration produced.
The EC50 values reported in Table 2 were obtained according to the human OX2R IP1 assay described above. Data are the mean EC50 values ±S.E.M.
`CS(=O)(=O)N[C@H]1CCCN2C(=O)COc3cc4[nH]ncc4cc3[C@H]3CC[C@H](CC3)OC[C@@H]12` [Compound 10] displayed an EC50 of less than 100 nM.

Compound `CS(=O)(=O)N[C@H]1CCN2C(=O)COc3cc4[nH]ncc4cc3[C@H]3CC[C@H](CC3)OC[C@@H]12` [Compound 6] yielded an EC50 of 100 to 1000 nM.

Turning to `O=C1COc2cc3[nH]ncc3cc2C2CCC(CC2)OCC2[C@@H](NS(=O)(=O)C(F)(F)F)CCN12` (stereo partly drawn) [Compound 5], the EC50 is 100 to 1000 nM.
